The target of data set [1] is T1, CYP2A13 (Homo sapiens, UniProt Q16696).
T1 construct: truncation of the non-catalytic N-terminal transmembrane helix and addition of a C-terminal 4× histidine tag; 4xHis (C); made in house; host or cells: E. coli
T1 sequence (Q16696 with tags, fused parts or gaps limits assumed): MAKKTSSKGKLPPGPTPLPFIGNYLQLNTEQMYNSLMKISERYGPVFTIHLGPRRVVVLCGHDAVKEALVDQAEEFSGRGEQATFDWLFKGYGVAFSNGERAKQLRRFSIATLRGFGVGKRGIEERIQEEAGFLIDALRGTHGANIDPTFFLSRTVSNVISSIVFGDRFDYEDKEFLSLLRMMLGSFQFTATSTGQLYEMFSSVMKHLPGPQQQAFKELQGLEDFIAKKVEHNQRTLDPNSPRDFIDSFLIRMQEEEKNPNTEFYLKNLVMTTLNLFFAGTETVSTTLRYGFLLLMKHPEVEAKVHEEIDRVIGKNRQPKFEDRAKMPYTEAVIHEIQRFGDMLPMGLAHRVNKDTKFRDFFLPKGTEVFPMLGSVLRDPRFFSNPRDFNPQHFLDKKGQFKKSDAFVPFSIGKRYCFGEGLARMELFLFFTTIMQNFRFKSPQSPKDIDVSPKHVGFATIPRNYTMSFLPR
Nature of the data set: Spectral shift ligand binding titration (cuvette method) with purified CYP2A13dH. The conditions noted are these: for Selectivity 2A6 Kd/2A13 Kd: (CYP2A6 Kd)/(CYP2A13 Kd), higher numbers are more selective. The source says:
(§1) To date, virtually all attempts to characterize full-length mammalian cytochromes P450 have been restricted by the production of only small (nanomolar) amounts of protein. However, truncation of the non-catalytic N-terminal transmembrane helix and addition of a C-terminal 4× histidine tag allow us to recombinantly produce tens of milligrams of highly purified modified CYP2A13 and CYP2A6 proteins per liter of E. coli culture. These engineered versions of the proteins (CYP2A13dH and CYP2A6dH are not shown) are fully functional in both binding ligands and metabolism of substrates. Protein expression in E. coli is initiated with the addition of IPTG to media supplemented with the heme precursor aminolevulinic acid. After 48-72 hours this expression system yields approximately 500-1300 nmol (27-71 mg) of CYP2A13dH or CYP2A6dH per liter of bacterial culture. Briefly, P450 proteins are liberated from E, coli membranes using a specialized detergent and high salt conditions and subsequently purified using metal-affinity and carboxymethyl-sepharose (CM-sepharose) affinity chromatography. Overall purification yield is up to 14 mg of highly purified protein per liter of E. coli culture.
(§2) Cytochrome P4502A13dH was expressed and purified as previously described (J. Biol. Chem. (2007), 282(23)17306-17313). Briefly, CYP2A13 was solubilized from the membrane using 4.8 mM Cymal-5 detergent (Anatrace, Maumee, Ohio) and 0.3M NaCl followed by ultracentrifugation at 30,000 rpm for 60 minutes. The solubilized protein was applied to Ni^2+-agarose resin (Qiagen, Valencia, Calif.) and after extensive washing with Buffer A (0.1M potassium phosphate, pH 7.4, 20% glycerol, 0.2M sodium chloride, 4.8 mM cymal, 8 mM histidine), the protein was eluted using Buffer B (Buffer A containing 2 mM EDTA and 80 mM histidine). The fractions containing protein with absorbance at 415 nm were pooled, diluted 5-fold with Buffer C (5 mM potassium phosphate, pH 7.4, 20% glycerol, 4.8 mM Cymal-5), and loaded onto HiTrap CM-FF column. The column was washed extensively with Buffer C without the detergent. Purified CYP2A13 was eluted using Buffer C with 50 mM potassium phosphate and 500 mM NaCl. An average yield of 14 mgs of CYP2A13 was obtained per liter of E. coli culture, Cytochrome P4502A6dH was similarly prepared.
(§3) The UV/visible spectra of purified CYP2A13dH and CYP2A6dH have a Soret peak at 418 nm, indicative of a low-spin, six-coordinate configuration of the heme iron bound to an active site water molecule (FIG. 1A). When ligands bind in the active site they frequently displace the water from the iron, resulting in a shift to five-coordinate, high spin iron with a maximal absorbance 395 nm. For cytochrome P450 enzymes, one often records the spectrum shift that occurs as protein is titrated with ligand to determine ligand affinity (kd values) (FIG. 1B).
(§4) The compounds that induced spectral shifts close to that of the positive control (PEITC) were validated in the spectral shift assay using the low throughput cuvette method. CYP2A13 protein samples were diluted to a concentration of 1 μM in 100 mM potassium phosphate buffer (pH 7.4) and were divided equally between reference and sample 1 mL quartz cuvettes. Concentrated compound stocks were prepared in 100% DMSO and the sample baseline was taken from 300-500 nm before beginning the titration. Substrate was added to the sample cuvette, mixed, and allowed to equilibrate for 2 minutes. An equal amount of ethanol was added to the reference cuvette for every addition of compound stock to the sample. The total amount of ethanol was kept less than 2% for each titration. After each coumarin addition, difference spectra were recorded from 300-500 nm and the change maximum (˜420 nm) to the minimum (˜385 nm) was determined. Graphpad Prism 4 (Graphpad Software, San Diego, Calif.) was used to determine the Ks and ΔAmax with nonlinear least-squares regression fitting to the equation: […]

Data set [2] has as its target T2, CYP2A6 (Homo sapiens, UniProt P11509).
T2 construct: truncation of the non-catalytic N-terminal transmembrane helix and addition of a C-terminal 4× histidine tag; 4xHis (C); made in house; host or cells: E. coli
T2 sequence (P11509 with tags, fused parts or gaps limits assumed): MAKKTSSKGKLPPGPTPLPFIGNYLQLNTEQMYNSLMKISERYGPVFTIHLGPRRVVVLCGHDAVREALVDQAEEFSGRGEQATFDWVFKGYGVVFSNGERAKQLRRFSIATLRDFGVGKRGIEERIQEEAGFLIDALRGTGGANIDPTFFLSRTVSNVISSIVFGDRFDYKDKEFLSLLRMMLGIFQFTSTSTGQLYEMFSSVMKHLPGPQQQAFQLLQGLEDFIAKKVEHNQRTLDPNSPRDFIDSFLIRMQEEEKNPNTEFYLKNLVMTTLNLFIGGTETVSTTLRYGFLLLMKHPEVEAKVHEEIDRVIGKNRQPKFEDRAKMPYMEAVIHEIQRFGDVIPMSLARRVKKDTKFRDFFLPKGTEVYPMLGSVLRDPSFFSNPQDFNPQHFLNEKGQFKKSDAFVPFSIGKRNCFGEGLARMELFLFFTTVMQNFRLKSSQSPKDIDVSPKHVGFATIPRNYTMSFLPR
Nature of the data set: Spectral shift ligand binding titration with purified CYP2A6dH. The conditions noted are these: for Kd / 2A6 Av. Kd: Table 1, average Kd; for Kd: read-out: 2A6 Av. Kd; for binding to CYP2A6 in titration / spectral shift with CYP2A6: result in words.
Description: as §1, §2, §3, §4

The mark [3] stands for this setting: Table 1, average Kd, read-out: 2A13 Av. Kd.
The mark [4] stands for this setting: initial characterisation of the hits, read-out: initial Kd values, CYP2A13.
[5] abbreviates: multiple titrations, read-out: average Kd for CYP2A13.

Experimental findings from patent US8962624B2, “Morpholines as selective inhibitors of cytochrome P450 2A13” (University of Kansas, priority 2007, dated 2015) are described below.

Several values for one entry are separate records, joined by “and”; a condition that tells them apart may be missing. Equal entries are not always repeated. Structures can show the parent of a compound that is named as a salt. Where two headings read alike, the source gives them in different places.

As usually defined, the Kd is the free concentration of one partner at which half of the binding sites on the other are occupied at equilibrium, for simple one-to-one binding. Turning to “4-(2,3-dichlorobenzyl)-1,6-dimethylmorpholine [Compound 10]”, the “Selectivity 2A6 Kd/2A13 Kd” value in data set [1] is on record as 12.9. The Kd in data set [1] (setting [3]) was 37.7 µM; in data set [2], above 486 µM.

`Clc1ccccc1CN1CCOCC1` [Compound 1, 4-(2-chlorobenzyl)morpholine]: the “Selectivity 2A6 Kd/2A13 Kd” value in data set [1] is on record as “high”. In data set [1] (setting [4]), the Kd came out at 1.8 µM. The Kd in data set [1] (setting [5]) was 7.3 µM. In data set [2], the “2A6 Av. Kd” value was “No binding”, the “binding to CYP2A6 in titration” value is given as “no substantially binding” and the “spectral shift with CYP2A6” value is on record as “no spectral shift”.

As to `Fc1cccc(Cl)c1CN1CCOCC1` [Compound 2, 4-(2-chloro-6-fluorobenzyl)morpholine], the “Selectivity 2A6 Kd/2A13 Kd” value in data set [1] is “high”. Further, the Kd in data set [1] (setting [5]) was ~5.8 µM and 5.8 µM. For the same molecule, in data set [2], the “2A6 Av. Kd” value is recorded as “No binding”, the “binding to CYP2A6 in titration” value was “no binding” and the “spectral shift with CYP2A6” value is given as “absolutely no spectral shift”.

Regarding `Cc1ccccc1CN1CCOCC1` [Compound 3, 4-(2-methylbenzyl)morpholine], the “Selectivity 2A6 Kd/2A13 Kd” value in data set [1] is on record as “high”. The Kd came to 19.3 µM in data set [1] (setting [3]); 4 µM in data set [1] (setting [4]); 19.3 µM in data set [1] (setting [5]); 19.3 µM in data set [1] (text b152, unit inferred, multiple titrations, read-out: average Kd). Besides, the “2A6 Av. Kd” value in data set [2] is “No binding”. Besides, the “binding to CYP2A6 in titration” value in data set [2] is on record as “no substantially binding”. Also, the “spectral shift with CYP2A6” value in data set [2] is “no spectral shift”.

Consider `Brc1ccccc1CN1CCOCC1` [Compound 4, 4-(2-bromobenzyl)morpholine], for which, in data set [1], the “Selectivity 2A6 Kd/2A13 Kd” value was “high”. In data set [1] (setting [3]), the Kd amounted to 7 µM. Also, in data set [2], the “2A6 Av. Kd” value is on record as “No binding”.

For the molecule `Fc1ccccc1CN1CCOCC1` [Compound 5, 4-(2-fluorobenzyl)morpholine], in data set [1], the “Selectivity 2A6 Kd/2A13 Kd” value is on record as “high”. Further, in data set [1] (setting [3]), the Kd turned out to be 72.5 µM. Further, in data set [2], the “2A6 Av. Kd” value is “No binding”.

`Clc1ccccc1CN1CCSCC1` [Compound 6, 4-(2-chlorobenzyl)thiomorpholine]: the “Selectivity 2A6 Kd/2A13 Kd” value in data set [1] was 15.5. Besides, the Kd in data set [1] (setting [3]) came to 10 µM; in data set [2] it was 155 µM.

As for `Clc1cccc(CN2CCOCC2)c1Cl` [Compound 7, 4-(2,3-dichlorobenzyl)morpholine], the “Selectivity 2A6 Kd/2A13 Kd” value in data set [1] came to 27. Also, the Kd in data set [1] (setting [3]) came to 28.5 µM; in data set [2], 788 µM.

Regarding `Clc1cccc(Cl)c1CN1CCOCC1` [Compound 8, 4-(2,6-dichlorobenzyl)morpholine], the “Selectivity 2A6 Kd/2A13 Kd” value in data set [1] came to 291. Moreover, the Kd in data set [1] (setting [3]) stood at 1.9 µM; in data set [2], 553 µM.

Take `Clc1ccc(CN2CCOCC2)c(Cl)c1` [Compound 9, 4-(2,4-dichlorobenzyl)morpholine]: the “Selectivity 2A6 Kd/2A13 Kd” value in data set [1] is on record as 5.66. The Kd in data set [1] (setting [3]) is 35 µM; in data set [2], 198 µM.

Take `C1CN(C2C3CC4CC(C3)CC2C4)CCO1` (centres unmarked) [Compound 31, 4-(2-adamantyl)morpholine hydrochloride]: the Kd in data set [1] (Table 2, unit inferred, read-out: 2A13 Kd) stood at 28.8 µM.
